Data published in article PMC7156724, “Potent BRD4 inhibitor suppresses cancer cell-macrophage interaction” (Nature Communications, 2020).
Values joined by “and” are separate entries in the source; they are usually repeats but may differ in a detail not shown here. Equal entries are not always repeated.

Key:
[1] = system: PI3K/AKT1 and ERK phosphorylation; test: Western blot of p-PI3K, p-AKT1 and p-ERK in TAMs; format: cell-based, mouse
Protocol: Supplementary Figure 13. NHWD-870 inhibited CSF1/CSF1R signaling pathw ay to reduce TAM […]
TA M s ( 2 ×10^5 cells) (treated with or without 10 ng/ml CSF1 and 100 nM NHWD-870 for 48 h) were seeded into the 6-well bottom chamber, in the presence or absence of A2780 cells (pre-treated with or without 100 nM NHWD-870 for 48 h) seeded into the top chamber (transwell size: 0.4μm). Shown are schematics of the experiment and representative western blot analysis of the indicated proteins (a), and quantification of the relative levels of p-PI3K, p-AKT1 and p-ERK over their respective total protein (b). Data are presented as mean ± SEM from 3 independent experiments. p values were calculated using two-tailed, unpaired t tests. n.s, no significant; **, p<0.01; ***, p<0.001. Source data are provided as a Source Data file. […]
4. Protein extraction and w estern blot anal ysis. Freshly dissected unfixed tissue was homogenized in lysis buffer. The lysates were centrifuged at 13,000g for 10 minutes at 4°C. Supernatants were collected and determined with a Bradford Protein Assay kit (Bio-Rad, Hercules, CA). The cell lysates were subjected to SDS-PAGE followed by immunoblotting (Immobilon P; Millipore, Milford, MA) with specific antibodies followed by detection using an enhanced chemilumine scence kit (Amersham Life Science, Arlington Heights, IL). […]

[2] = Equilibrium dialysis assay, CD-1 mouse plasma
Protocol: The concentration was calculated using the peak area ratio of analyte and internal […]
The results were calculated by the following equations:
% Unbound = 100 *FC / TC, % Bound = 100 * (1-FC / TC)
% Recovery = 100 * (FC + TC) / T0
TC = Total compound concentration as determined by the calculated concentration on the retentate side of the membrane
FC = Free compound concentration as determined by the calculated concentration on the dialysate side of the membrane […]
Equation of first order kinetics: […]
8. Equilibrium dialysis assay. Binding with plasma protein and recovery rate of NHWD-870 were performed with human, CD-1 mouse and SD rat plasma as […]
described 2. […] The concentration was […]
calculated using the peak area ratio of analyte and internal standard. The results were calculated by the following equations: % Unbound = 100 *FC / TC, % Bound = 100 * (1-FC / TC); % Recovery = 100 * (FC + TC) / T0; TC = Total compound concentration as determined by the calculated concentration on the retentate side of the membrane; FC = Free compound concentration as determined by the (1 picture or pasted object on this page, not shown here) […]
calculated concentration on the dialysate side of the membrane; T0 = To t a l compound concentration as determined before dialysis. […]
10. hERG channel assay. […]
HEK293 cell line stably

TAMs = test: Ki67 FACS of TAMs induced by CSF1; format: cell-based, mouse
Protocol: Flow cytometry analyses were performed using antibodies listed in Supplementary Table 8. For cell surface markers, mouse TAM suspensions were stained with mouse APC-CD45, FITC-CD11b, PE-F4/80 or APC-F4/80, CD68, and PE-CD206 antibodies for 15 min on ice. For Ki67 staining, cells were fixed in 4% paraformaldehyde and stained with FITC-Ki67. Isotype matching antibody served as the negative control. Flow cytometry was performed on a FACSCalibur (BD Biosciences). Data were analyzed with BD CellQuest Pro software version 5.1.
Supplementary Figure 14. NHWD-870 and BRD4 deletion partially inhibite d prolifera tion of TAMs […]
(a) CD45+CD11b+F4/80 + TAMs in the orthotopic B16 melanoma model were harvested from tumors. Shown are representative FACS plots of TAMs. (b,c) Representative FACS plots (b) and quantification (c) of Ki67+ macrophages treated with 50 ng/ml CSF1, and DMSO or 25 or 50 nM NHWD-870. […]
TAMs induced by CSF1. (a-c) CD11b+F4/80+ macrophages in the orthotopic B16F10 melanoma model were harvested from tumor tissues. Shown are representative CD45+, CD11b+, F4/80+ FACS plots (a) and quantification of the percentage of Ki67+ cells after treatment with DMSO or NHWD-870 dependent on CSF1 stimulation (b,c). (d-g) FACS plots and quantification of the percentage of Ki67+ cells after CRISPR/Cas9-mediated BRD4 knockout (d,e) and c-MYC knockout (f,g) in CD11b+F4/80+ macrophages. CSF1 is added at the indicated concentration.
Please also see response to comment # 4 about our 2D assays, in which we used colony number to quantify the number of TAMs.
NHWD-870 treatment and the main differences are colony size.
6. For comparison purposes, it would be a good idea to compare the direct effect of NHWD-870 on in […]
marrow derived macrophage proliferation and gene expression in vitro). […]

[3] = A2780&NHWD-870, individual replicates
[4] = CSF1&NHWD-870, individual replicates

Structure (SMILES): Cc1nnn(C)c1-c1cnc2c3c4cnn(C)c4ccc3n([C@H](c3ccccc3)C3CCOCC3)c2c1 [NHWD-870]
- p-AKT1 (Sup Fig.13b quantification) [1, 3]: 2.1 and 1.52 and 1.57
- p-ERK (Sup Fig.13b quantification) [1, 3]: 1.19 and 1.05 and 0.87
- p-PI3K (Sup Fig.13b quantification) [1, 3]: 2.9 and 1.18 and 1.69
- p-AKT1 (Sup Fig.13b quantification) [1, 4]: 6.88 and 4.52 and 4.09
- p-ERK (Sup Fig.13b quantification) [1, 4]: 3.28 and 4.19 and 4.11
- p-PI3K (Sup Fig.13b quantification) [1, 4]: 2.92 and 3.3 and 3.78
- CSF1-induced PI3K/AKT1 and ERK phosphorylation in TAMs ([1]; direct treatment of TAMs, 100 nM, 48 h): not affected
- PI3K/AKT1 and ERK activation in TAMs co-cultured with A2780 cells ([1]; pre-treatment of A2780 cells, 100 nM, 48 h): blocked
- fraction unbound ([2]; CD-1, mouse, plasma): 0.026
- recovery ([2]; CD-1, mouse, plasma): 95.2%
- % Bound ([2]; CD-1 mouse plasma, equilibrium dialysis): 97.4%
- decrease of TAMs proliferation (Ki67 FACS) (TAMs; TAMs induced by CSF1): ~ 50%
- fold decrease of CSF1 induced growth of macrophages (TAMs; direct treatment of TAMs in 2D growth assays): < 2 fold
